Results on eight cell lines are retold here after the supplement of paper PMC10307832.

Experiment in all cases: relative viability (nuclei count vs DMSO), 5 days (fraction); higher = more cells survive
Compound in experiment [1]: COc1cc(Nc2ncc(F)c(Nc3ccc4c(n3)NC(=O)C(C)(C)O4)n2)cc(OC)c1OC [R406] + Cc1nc(Nc2ncc(C(=O)Nc3c(C)cccc3Cl)s2)cc(N2CCN(CCO)CC2)n1 [Dasatinib] (partner 0.075 µM)
The essentials:
(§1)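 Relative viability equals treated-well nuclei counts divided by vehicle-well nuclei counts. Counts came from 4× images of lung cancer cell lines grown in 1536-well plates for 5 days after pin-tool dosing on the day after seeding. Dosing used one drug alone or a fixed anchor-drug dose plus five library-drug doses (not always all listed) in √10 steps, and values are medians of duplicate plates.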

Compound in experiment [2]: O=C(/C=C/c1cccnc1)NCCCCC1CCN(C(=O)c2ccccc2)CC1 [Daporinad] + CC(C)C[C@H](NC(=O)[C@H](Cc1ccccc1)NC(=O)c1cnccn1)B(O)O [Bortezomib] (partner 0.002 µM)
The method, boiled down: as §1

Compound in experiment [3]: O=C(/C=C/c1cccnc1)NCCCCC1CCN(C(=O)c2ccccc2)CC1 [Daporinad] + Cc1cc(Nc2cc(N3CCN(C)CC3)nc(Sc3ccc(NC(=O)C4CC4)cc3)n2)n[nH]1 [Tozasertib] (partner 0.1 µM)
The method, boiled down: as §1

Compound in experiment [4]: O=C(/C=C/c1cccnc1)NCCCCC1CCN(C(=O)c2ccccc2)CC1 [Daporinad] + Nc1nc2[nH]cc(CCc3ccc(C(=O)N[C@@H](CCC(=O)O)C(=O)O)cc3)c2c(=O)[nH]1 [Pemetrexed] (partner 0.2 µM)
The method, boiled down: as §1

As to NCI-H2347, the relative viability in experiment [1] (first compound 0.08 µM) was 0.322; in experiment [1] (first compound 0.253 µM), 0.339; in experiment [1] (first compound 0.8 µM), 0.324; in experiment [1] (first compound 2.53 µM) it was 0.319; in experiment [1] (first compound 8 µM), 0.299; in experiment [2] (first compound 0.0005 µM), 1.15. In addition, the relative viability in experiment [2] (first compound 0.001581 µM) was found to be 1.03; in experiment [2] (first compound 0.005 µM), 0.922; in experiment [2] (first compound 0.01581 µM), 1.41; in experiment [3] (first compound 0.0005 µM), 0.597; in experiment [3] (first compound 0.001581 µM), 0.636; in experiment [3] (first compound 0.005 µM), 0.504. Besides, the relative viability in experiment [3] (first compound 0.01581 µM) came to 0.596; in experiment [4] (first compound 0.0005 µM), 0.441; in experiment [4] (first compound 0.001581 µM), 0.402; in experiment [4] (first compound 0.005 µM), 0.472; in experiment [4] (first compound 0.01581 µM), 0.454.
Take NCI-H2405: the relative viability in experiment [1] (first compound 0.08 µM) worked out at 0.19; in experiment [1] (first compound 0.253 µM), 0.226; in experiment [1] (first compound 0.8 µM), 0.224; in experiment [1] (first compound 2.53 µM), 0.198; in experiment [1] (first compound 8 µM) it was 0.142; in experiment [2] (first compound 0.0005 µM) it was 1. Besides, the relative viability in experiment [2] (first compound 0.001581 µM) was 0.772; in experiment [2] (first compound 0.005 µM) it was 1.02; in experiment [2] (first compound 0.01581 µM), 0.612; in experiment [3] (first compound 0.0005 µM), 0.82; in experiment [3] (first compound 0.001581 µM), 0.783; in experiment [3] (first compound 0.005 µM) it was 0.954. Moreover, the relative viability in experiment [3] (first compound 0.01581 µM) was 0.888; in experiment [4] (first compound 0.0005 µM), 1.17; in experiment [4] (first compound 0.001581 µM), 1.14; in experiment [4] (first compound 0.005 µM), 1.03; in experiment [4] (first compound 0.01581 µM) it was 0.413.
As to NCI-H3122, the relative viability turned out to be 0.743 in experiment [1] (first compound 0.08 µM); 0.844 in experiment [1] (first compound 0.253 µM); 0.832 in experiment [1] (first compound 0.8 µM); 0.491 in experiment [1] (first compound 8 µM); 1.02 in experiment [2] (first compound 0.0005 µM); 1.01 in experiment [2] (first compound 0.001581 µM). Moreover, the relative viability is 1.02 in experiment [2] (first compound 0.005 µM); 1.05 in experiment [2] (first compound 0.01581 µM); 0.376 in experiment [3] (first compound 0.0005 µM); 0.403 in experiment [3] (first compound 0.001581 µM); 0.421 in experiment [3] (first compound 0.005 µM); 0.405 in experiment [3] (first compound 0.01581 µM). Also, the relative viability in experiment [4] (first compound 0.0005 µM) turned out to be 0.199; in experiment [4] (first compound 0.001581 µM), 0.185; in experiment [4] (first compound 0.005 µM), 0.185; in experiment [4] (first compound 0.01581 µM) it was 0.203.
For the cell line PC-3 [JPC-3], the relative viability in experiment [1] (first compound 0.08 µM) was found to be 0.951; in experiment [1] (first compound 0.253 µM) it was 1.09; in experiment [1] (first compound 0.8 µM) it was 1.27; in experiment [1] (first compound 2.53 µM), 0.915; in experiment [1] (first compound 8 µM), 0.737; in experiment [2] (first compound 0.0005 µM), 0.85. Besides, the relative viability in experiment [2] (first compound 0.001581 µM) was 0.864; in experiment [2] (first compound 0.005 µM), 0.844; in experiment [2] (first compound 0.01581 µM), 0.827; in experiment [3] (first compound 0.0005 µM), 0.864; in experiment [3] (first compound 0.001581 µM), 0.896; in experiment [3] (first compound 0.005 µM), 0.938. The relative viability in experiment [3] (first compound 0.01581 µM) came out at 0.952; in experiment [4] (first compound 0.0005 µM) it was 1.05; in experiment [4] (first compound 0.001581 µM), 1.14; in experiment [4] (first compound 0.005 µM), 1.34; in experiment [4] (first compound 0.01581 µM), 1.07.
As to PC-14, the relative viability in experiment [1] (first compound 0.08 µM) was found to be 0.271; in experiment [1] (first compound 0.253 µM) it was 0.241; in experiment [1] (first compound 0.8 µM), 0.283; in experiment [1] (first compound 2.53 µM), 0.105; in experiment [1] (first compound 8 µM), 0.0312; in experiment [2] (first compound 0.0005 µM), 0.845. Besides, the relative viability worked out at 0.891 in experiment [2] (first compound 0.001581 µM); 0.988 in experiment [2] (first compound 0.005 µM); 0.533 in experiment [2] (first compound 0.01581 µM); 0.688 in experiment [3] (first compound 0.0005 µM); 0.633 in experiment [3] (first compound 0.001581 µM); 0.606 in experiment [3] (first compound 0.005 µM). For the same cell line, the relative viability in experiment [3] (first compound 0.01581 µM) was 0.709; in experiment [4] (first compound 0.0005 µM) it was 0.0976; in experiment [4] (first compound 0.001581 µM) it was 0.126; in experiment [4] (first compound 0.005 µM) it was 0.153; in experiment [4] (first compound 0.01581 µM), 0.146.
For RERF-LC-KJ, the relative viability in experiment [1] (first compound 0.08 µM) came out at 0.782; in experiment [1] (first compound 0.253 µM) it was 0.878; in experiment [1] (first compound 0.8 µM), 0.939; in experiment [1] (first compound 2.53 µM), 0.678; in experiment [1] (first compound 8 µM), 0.503; in experiment [2] (first compound 0.0005 µM), 0.996. The relative viability in experiment [2] (first compound 0.001581 µM) was determined as 1.05; in experiment [2] (first compound 0.005 µM), 1.45; in experiment [2] (first compound 0.01581 µM), 1.26; in experiment [3] (first compound 0.0005 µM) it was 0.559; in experiment [3] (first compound 0.001581 µM) it was 0.45; in experiment [3] (first compound 0.005 µM), 0.562. Moreover, the relative viability in experiment [3] (first compound 0.01581 µM) was 0.517; in experiment [4] (first compound 0.0005 µM) it was 0.465; in experiment [4] (first compound 0.001581 µM), 0.482; in experiment [4] (first compound 0.005 µM), 0.587; in experiment [4] (first compound 0.01581 µM), 0.568.
Consider SK-LU-1, for which the relative viability in experiment [1] (first compound 0.08 µM) is 0.164; in experiment [1] (first compound 0.253 µM) it was 0.174; in experiment [1] (first compound 0.8 µM), 0.186; in experiment [1] (first compound 2.53 µM), 0.0685; in experiment [1] (first compound 8 µM) it was 0.0703; in experiment [2] (first compound 0.0005 µM), 0.921. For the same cell line, the relative viability was found to be 1.34 in experiment [2] (first compound 0.001581 µM); 1.16 in experiment [2] (first compound 0.005 µM); 1.61 in experiment [2] (first compound 0.01581 µM); 0.316 in experiment [3] (first compound 0.0005 µM); 0.289 in experiment [3] (first compound 0.001581 µM); 0.281 in experiment [3] (first compound 0.005 µM). In addition, the relative viability in experiment [3] (first compound 0.01581 µM) was 0.35; in experiment [4] (first compound 0.0005 µM) it was 1.04; in experiment [4] (first compound 0.001581 µM), 0.998; in experiment [4] (first compound 0.005 µM), 1.09; in experiment [4] (first compound 0.01581 µM), 0.941.
As to SW 1573, the relative viability was 0.492 in experiment [1] (first compound 0.08 µM); 0.539 in experiment [1] (first compound 0.253 µM); 0.602 in experiment [1] (first compound 0.8 µM); 0.366 in experiment [1] (first compound 2.53 µM); 0.149 in experiment [1] (first compound 8 µM); 1.12 in experiment [2] (first compound 0.0005 µM). Besides, the relative viability in experiment [2] (first compound 0.001581 µM) was 0.769; in experiment [2] (first compound 0.005 µM), 1.05; in experiment [2] (first compound 0.01581 µM) it was 0.714; in experiment [3] (first compound 0.0005 µM) it was 0.185; in experiment [3] (first compound 0.001581 µM), 0.183; in experiment [3] (first compound 0.005 µM), 0.166. Besides, the relative viability in experiment [3] (first compound 0.01581 µM) stood at 0.178; in experiment [4] (first compound 0.0005 µM), 0.798; in experiment [4] (first compound 0.001581 µM), 0.74; in experiment [4] (first compound 0.005 µM), 0.7; in experiment [4] (first compound 0.01581 µM), 0.461.
